Data from patent US11827628B2, “Compositions and methods for inhibition of the JAK pathway” (Rigel Pharmaceuticals, Inc., priority 2005, dated 2023).
Structures can show the parent of a compound that is named as a salt.

What follows are compounds tested on IL-4 stimulated expression of CD23 in human Ramos B cells (JAK-1 and JAK-3) (assay: Assay for Ramos B-Cell Line Stimulated with IL-4 (CD23 upregulation, FACS)). Conditions: Homo sapiens, Ramos, Ramos B cells stimulated with IL-4, CD23 expression by FACS; read-out: IC50, Example 41.
Type: cell-based
Summary of the method: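 Human Ramos B cells in RPMI with 5% serum were pre-incubated with compound or DMSO for 1 h at 37 °C, then stimulated with IL-4 at a final 50 units/mL for 20-24 h. CD23 upregulation was measured by anti-CD23-PE staining and flow cytometry, and IC50 values were calculated.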

IC50 | Compound
3700 nM | NS(=O)(=O)c1cccc(Nc2ncc(F)c(Nc3ccc(C(=O)N4CCS(=O)(=O)CC4)cc3)n2)c1 [IX-37, N2-(3-Aminosulfonylphenyl)-N4-[4-(1,1-dioxo-4-thiomorpholinyl)carbonylphenyl]-5-fluoro-2,4-pyrimidinediamine]
93.2 nM | NS(=O)(=O)c1ccc(Nc2ncc(F)c(Nc3cccc(-c4cnco4)c3)n2)cc1 [IV-3, N2-(4-Aminosulfonylphenyl)-5-fluoro-N4-[3-(1,3-oxazol-5-yl)phenyl]-2,4-pyrimidinediamine]
360 nM | C#CCNS(=O)(=O)c1cccc(Nc2nc(Nc3ccc(S(N)(=O)=O)cc3)ncc2F)c1 [VI-80, N2-(4-Aminosulfonylphenyl)-5-fluoro-N4-[3-(prop-2-ynylaminosulfonyl)phenyl]-2,4-pyrimidinediamine]
726 nM | COc1ccc(N(C)c2nc(Nc3cc(C)c(F)c(S(N)(=O)=O)c3)ncc2F)cc1Cl [VI-20, N2-(3-Aminosulfonyl-4-fluoro-5-methylphenyl)-N4-(3-chloro-4-methoxyphenyl)-5-fluoro-N4-methyl-2,4-pyrimidinediamine]
1840 nM | CCN(CC)S(=O)(=O)c1ccc(OC)c(Nc2nc(Nc3ccc4c(c3)NC(=O)C(C)(C)O4)cc(C(=O)OC)n2)c1 [Compound X-2]
115 nM | C#CCn1ccc2ccc(Nc3nc(Nc4ccc(C)c(S(N)(=O)=O)c4)ncc3F)cc21 [IX-3, N2-(3-Aminosulfonyl-4-methylphenyl)-5-fluoro-N4-[1-(propyn-3-yl)indol-6-yl]-2,4-pyrimidinediamine]
120 nM | C#CCn1ccc2ccc(Nc3nc(Nc4cccc(S(N)(=O)=O)c4)ncc3F)cc21 [IX-4, N2-(3-Aminosulfonylphenyl)-5-fluoro-N4-[1-(propyn-3-yl)indol-6-yl]-2,4-pyrimidinediamine]
1070 nM | Cc1ccc(Nc2ncc(F)c(Nc3ccc(CCNC(N)=O)cc3)n2)cc1S(N)(=O)=O [VI-71, N4-{4-[2-(Aminocarbonylamino)ethyl]phenyl}-N2-(3-aminosulfonyl-4-methylphenyl)-5-fluoro-2,4-pyrimidinediamine]
117 nM | CNS(=O)(=O)c1ccc(Nc2ncc(F)c(Nc3ccc(Cl)c(C(F)(F)F)c3)n2)cc1OC [IX-52, N4-(4-Chloro-3-trifluoromethylphenyl)-5-fluoro-N2-[4-(N-methyl)aminosulfonyl-3-methoxyphenyl]-2,4-pyrimidinediamine]
3620 nM | Cc1ccc(Nc2ncc(F)c(N[C@@H]3CCN(C(=O)CC#N)C3)n2)cc1S(N)(=O)=O [IX-45, N2-(3-Aminosulfonyl-4-methylphenyl)-N4-[(4R)-1-(2-cyanoacetyl)-pyrrolidin-4-yl)-5-fluoro-2,4-pyrimidinediamine]
11300 nM | COc1ccc(N(C)c2nc(Nc3cc(C)c(Cl)c(S(N)(=O)=O)c3)ncc2F)cc1Cl [VI-21, N2-(3-Aminosulfonyl-4-chloro-5-methylphenyl)-N4-(3-chloro-4-methoxyphenyl)-5-fluoro-N4-methyl-2,4-pyrimidinediamine]
179 nM | CNS(=O)(=O)c1ccc(Nc2ncc(F)c(Nc3ccc(OC)c(OC)c3)n2)cc1OC [IX-50, N4-(3,4-Dimethoxyphenyl)-5-fluoro-N2-[4-(N-methyl)aminosulfonyl-3-methoxyphenyl]-2,4-pyrimidinediamine]
2670 nM | CN1C(=O)CSc2ccc(N(CC#N)c3nc(Nc4ccc(S(N)(=O)=O)cc4)ncc3F)cc21 [VII-47, N2-(4-Aminosulphonylphenyl)-N4-cyanomethyl-5-fluoro-N4-[3-oxo-4-methyl-benzo[1,4]thiazin-6-yl]-2,4-pyrimidinediamine]

Same assay, conditions: Homo sapiens, Ramos, Ramos B-cell line stimulated with IL-4; CD23 expression by FACS; read-out: IC50, Example 41

IC50 | Compound
1400 nM | CCC(=O)NS(=O)(=O)c1cc(Nc2ncc(F)c(Nc3ccc(OCC#N)c(F)c3)n2)ccc1C [Compound I-48, N4-(4-Cyanomethoxy-3-fluorophenyl)-5-fluoro-N2-(4-methyl-3-propionylaminosulfonylphenyl)-2,4-pyrimidinediamine]
380 nM | NC(=O)COc1ccc(Nc2nc(Nc3ccc(S(N)(=O)=O)cc3)ncc2F)cc1F [Compound I-100, N4-(4-Aminocarbonylmethoxy-3-fluorophenyl)-N2-(4-aminosulfonylphenyl)-5-fluoro-2,4-pyrimidinediamine]
612 nM | CN(C)C(=O)COc1ccc(Nc2nc(Nc3cccc(S(N)(=O)=O)c3)ncc2F)cc1 [Compound I-129, N2-(3-Aminosulfonylphenyl)-N4-(4-dimethylaminocarbonylmethoxyphenyl)-5-fluoro-2,4-pyrimidinediamine]

Same assay, conditions: Ramos B cells stimulated with IL-4, CD23 expression by FACS; read-out: IC50, Example 41

IC50 | Compound
4130 nM | Cc1ccc(Nc2ncc(F)c(NC3CN(C(=O)CC#N)CCC3C)n2)cc1S(N)(=O)=O (racemic) [VII-5, Racemic N2-(3-aminosulfonyl-4-methylphenyl)-N4-(1-cyanomethylenecarbonyl-4-methylpiperidin-3-yl)-5-fluoro-2,4-pyrimidinediamine]
1400 nM | CNS(=O)(=O)c1cc(Nc2ncc(F)c(Nc3ccc(C(=O)N4CCS(=O)(=O)CC4)cc3)n2)ccc1C [IX-39, N4-[4-(1,1-dioxo-4-thiomorpholinyl)carbonylphenyl]-5-Fluoro-N2-[3-(N-methylaminosulfony)-4-methylphenyl]-2,4-pyrimidinediamine]
9660 nM | C#CCOc1ccc(Nc2nc(Nc3ccc(C)c(S(=O)(=O)NC(=O)CC)c3)ncc2F)cc1 [VI-56, 5-Fluoro-N2-(4-methyl-3-propionylaminosulfonylphenyl)-N4-[4-(prop-2-ynyloxy)phenyl]-2,4-pyrimidinediamine]
3460 nM | CS(=O)(=O)N1CCN(C(=O)c2ccc(Nc3nc(Nc4cccc(S(N)(=O)=O)c4)ncc3F)cc2)CC1 [IX-29, N2-(3-Aminosulfonylphenyl)-5-fluoro-N4-[4-(1-methanesulfonyl-4-piperizinyl)carbonylphenyl]-2,4-pyrimidinediamine]
8370 nM | Cc1ccc(Nc2ncc(F)c(Nc3ccc4sc(CCC#N)cc4c3)n2)cc1S(N)(=O)=O [Compound V-16, N2-(3-Aminosulfonyl-4-methylphenyl)-N4-(2-cyanoethylene-benzothiophen-5-yl)-5-fluoro-2,4-pyrimidinediamine]
217 nM | CNS(=O)(=O)c1ccc(Nc2ncc(F)c(Nc3ccc4c(c3)OCCO4)n2)cc1OC [VII-25, N4-(3,4-Ethyenedioxyphenyl)-5-fluoro-N2-[4-(N-methyl)aminosulfonyl-3-methoxyphenyl]-2,4-pyrimidinediamine]
521 nM | CNS(=O)(=O)c1cc(Nc2ncc(F)c(Nc3ccc(C(=O)N4CCSCC4)cc3)n2)ccc1C [IX-33, 5-Fluoro-N2-[3-(N-methylaminosulfony)-4-methylphenyl]-5-fluoro-N4-[4-(4-thiomorpholino)carbonylphenyl]-2,4-pyrimidinediamine]
863 nM | N4-(2-Amino-3-methoxypyrid-6-yl)-N2-[3-(ethoxycarbonylmethylene)aminosulfonylphenyl)-5-fluoro-2,4-pyrimidinediamine [VII-10]
754 nM | COc1ccc(Nc2nc(Nc3cccc(S(N)(=O)=O)c3)ncc2C#C[Si](C)(C)C)cc1Cl [VI-28, N2-(3-Aminosulfonylphenyl)-N4-(3-chloro-4-methoxyphenyl)-5-trimethylsilylacetylene-2,4-pyrimidinediamine]

Same assay, conditions: Ramos B-cell line stimulated with IL-4; CD23 expression by FACS; read-out: IC50, Example 41

IC50 | Compound
700 nM | Cc1cc(COc2ccc(N(C)c3nc(Nc4ccc(C)c(S(N)(=O)=O)c4)ncc3F)cc2)no1 [Compound I-225, N2-(3-Aminosulfonyl-4-methylphenyl)-5-fluoro-N4-methyl-N4-[4-(5-methylisoxazol-3-yl)methyleneoxyphenyl]-2,4-pyrimidinediamine]
8800 nM | CC(=O)NS(=O)(=O)c1cc(Nc2ncc(F)c(Nc3ccc(OCC#N)cc3)n2)ccc1C [Compound I-36, N2-(3-Acetylaminosulfonyl-4-methyl)phenyl-N4-(4-cyanomethyleneoxy)phenyl-5-fluoro-2,4-pyrimidinediamine]
917 nM | CNS(=O)(=O)c1ccc(Nc2ncc(F)c(Nc3ccc(OC(F)(F)F)c(Cl)c3)n2)cc1OC [Compound I-269, 5-fluoro-N2-(4-N-methylaminosulfonyl)-3-methoxyphenyl-N4-(4-trifluoromethoxy-3-chlorophenyl)-2,4-pyrimidinediamine]
298 nM | NS(=O)(=O)c1ccc(Nc2ncc(F)c(Nc3cccc(OCc4cccnc4)c3)n2)cc1 [Compound I-185, N2-(4-Aminosulfonylphenyl)-5-fluoro-N4-[3-(3-pyridinyl)methyleneoxyphenyl]-2,4-pyrimidinediamine]
1400 nM | Cc1ccc(Nc2nc(Nc3cccc(S(N)(=O)=O)c3)ncc2F)cc1OCC(=O)N1CCOCC1 [Compound I-208, N2-(3-Aminosulfonylphenyl)-5-fluoro-N4-[4-methyl-3-(2-morpholinocarbonylmethyleneoxy)phenyl]-2,4-pyrimidinediamine]
1170 nM | Cc1nc(COc2ccc(Nc3nc(Nc4cccc(S(=O)(=O)N5CCN(C)CC5)c4)ncc3F)cc2)no1 [Compound I-274, 5-Fluoro-N4-[4-(5-methyl-1,2,4-oxadiazol-3-yl)methoxy]phenyl-N2-[3-(4-methylpiperazin-1-yl)sulfonyl]phenyl-2,4-pyrimidinediamine]
673 nM | Cc1cc(COc2ccc(Nc3nc(Nc4cccc(S(=O)(=O)NCc5oc(=O)oc5C(C)(C)C)c4)ncc3F)cc2)no1 [Compound I-250, N2-{3-[(N-5-t-Butyl-1,3-dioxolene-2-one-4-yl)methylene]aminosulfonylphenyl}-5-fluoro-N4-[4-(5-methylisoxazol-3-yl)methyleneoxyphenyl]-2,4-pyrimidinediamine]

Same assay, conditions: Ramos B-cell line stimulated with IL-4; CD23 expression by FACS; sodium salt; read-out: IC50, Example 41

IC50 | Compound
520 nM | CCC(=O)NS(=O)(=O)c1cccc(Nc2ncc(F)c(Nc3ccc(OCc4cc(C)on4)cc3)n2)c1 [Compound I-242, 5-Fluoro-N4-[4-(5-methylisoxazol-3-yl)methyleneoxyphenyl]-N2-(3-N-propanamido)sulfonylphenyl)]-2,4-pyrimidinediamine sodium salt]
